{"source": "patent US9974856B2", "about": "“Method of treating androgen deficiency in women” (Parapharm Ltd., priority 2009, dated 2018)", "test_system": "human subject with diagnosed osteopenia", "test": "Mineral bone density (forearm scanner DXT-200) and serum calcium in a subject with osteopenia", "assay_type": "in vivo", "conditions": "after a one-month break in the administration, following six-month course of 1 g 3 times a day", "method": "A human subject. The mineral bone density of T−1.4 was measured in the distal antibrachium by means of the forearm scanner DXT-200 available from Osteometer MediTech, Inc. Osteopenia was diagnosed and 1 g of calcium gluconate was administered 3 times a day. A six-month course of preventive medication was conducted. […] That is, the mineral bone density (MBD) became less. […] For reference: MBD normal value—the values of T criterion with a standard deviation of +1 to −1 from the peak bone mass; • 1st degree osteopenia—MBD of −1 to −1.5; • 2nd degree osteopenia—MBD of −1.5 to −2; • 3rd degree osteopenia—MBD of −2 to −2.5; • 1st degree osteoporosis—MBD of −2.5 and less without fractures; • 2nd degree osteoporosis—MBD of −2.5 and less with osteoporotic bone fractures. The densitometric T scale presents the number of standard deviations up and down an average bone mass value. The T criterion decreases in parallel with a gradual reduction in the bone mass with age and is used to evaluate the MBD in adults.\nThe same human subject with diagnosed osteopenia and the mineral bone density of T −1.6 was administered one capsule of the claimed biologically active food additive 3 times a day A six-month preventive medication course was conducted following the pattern of one-month administration/one-month break. The mineral bone density increased to T −1.2. The serum calcium value normalized. […]"}
{"substance": "calcium gluconate", "values": [{"measurement": "serum calcium value", "value": "below the normal value"}]}
